Source: ChEMBL document CHEMBL3046903, “Systemic action of novel neonicotinoid insecticide IPP-10 and its effect on the feeding behaviour of Rhopalosiphum padi on wheat” (2010)
≈ marks a conversion by molar mass, not a printed value. Calls of active or inactive are those of the source. The calls are words filed in the database; no cut-off is given here.

Legend:
Rhopalosiphum padi [1] = assay: Insecticidal activity against adult Rhopalosiphum padi infested wheat plant assessed as reduction in xylem ingestion at 0.4 mg/l applied to the roots for 6 hr by electrical penetration graphical analysis relative to control; assay type: functional, organism-based
Rhopalosiphum padi [2] = assay: Toxicity against first-instar nymph of Rhopalosiphum padi assessed as reduction in weight at 0.4 mg/l applied to roots measured after 7 days relative to control; assay type: functional, organism-based
Rhopalosiphum padi [3] = assay: Insecticidal activity against adult Rhopalosiphum padi infested wheat plant assessed as bout duration of xylem ingestion at 2 mg/l applied to the roots for 6 hr by electrical penetration graphical analysis (reference value: 20.4 +/- 4.5 min); assay type: functional
Rhopalosiphum padi [4] = assay: Toxicity against Rhopalosiphum padi infested wheat plant assessed as mortality at 1000 mg/l applied to upper plant for 1 min followed by basipetal transportation for 24 hr measured 24 hr after removal of upper plant parts relative to control; assay type: functional
Rhopalosiphum padi [5] = assay: Toxicity against Rhopalosiphum padi infested wheat plant applied to the roots measured after 48 hr; assay type: functional
Rhopalosiphum padi [6] = assay: Insecticidal activity against adult Rhopalosiphum padi infested wheat plant assessed as frequency of xylem ingestion at 0.4 mg/l applied to the roots for 6 hr by electrical penetration graphical analysis (reference value: 8.2 +/- 0.3 Hz); assay type: functional
Rhopalosiphum padi [7] = assay: Insecticidal activity against adult Rhopalosiphum padi infested wheat plant assessed as reduction in occurrences of salivation into sieve elements at 0.4 mg/l applied to the roots for 6 hr by electrical penetration graphical analysis relative to control; assay type: functional, organism-based
Rhopalosiphum padi [8] = assay: Insecticidal activity against adult Rhopalosiphum padi infested wheat plant assessed as total time of phloem ingestion at 2 mg/l applied to the roots for 6 hr by electrical penetration graphical analysis (reference value: 296.4 +/- 39.3 min); assay type: functional
Rhopalosiphum padi [9] = assay: Insecticidal activity against adult Rhopalosiphum padi infested wheat plant assessed as total time of phloem ingestion at 0.4 mg/l applied to the roots for 6 hr by electrical penetration graphical analysis (reference value: 296.4 +/- 39.3 min); assay type: functional
Rhopalosiphum padi [10] = assay: Insecticidal activity against adult Rhopalosiphum padi infested wheat plant assessed as reduction in xylem ingestion at 2 mg/l applied to the roots for 6 hr by electrical penetration graphical analysis relative to control; assay type: functional, organism-based
Rhopalosiphum padi [11] = assay: Insecticidal activity against adult Rhopalosiphum padi infested wheat plant assessed as bout duration of salivation into sieve elements at 2 mg/l applied to the roots for 6 hr by electrical penetration graphical analysis (reference value: 32.4 +/- 3 secs); assay type: functional
Rhopalosiphum padi [12] = assay: Insecticidal activity against adult Rhopalosiphum padi infested wheat plant assessed as total time of xylem ingestion at 2 mg/l applied to the roots for 6 hr by electrical penetration graphical analysis (reference value: 23.1 +/- 4.5 min); assay type: functional
Rhopalosiphum padi [13] = assay: Toxicity against first-instar nymph of Rhopalosiphum padi assessed as reduction in reproductive rate at 0.4 mg/l applied to roots measured after 16 days relative to control; assay type: functional, organism-based
Rhopalosiphum padi [14] = assay: Insecticidal activity against adult Rhopalosiphum padi infested wheat plant assessed as reduction in occurrences of phloem ingestion at 0.4 mg/l applied to the roots for 6 hr by electrical penetration graphical analysis relative to control; assay type: functional, organism-based
Rhopalosiphum padi [15] = assay: Insecticidal activity against adult Rhopalosiphum padi infested wheat plant assessed as total time of xylem ingestion at 0.4 mg/l applied to the roots for 6 hr by electrical penetration graphical analysis (reference value: 23.1 +/- 4.5 min); assay type: functional
Rhopalosiphum padi [16] = assay: Toxicity against Rhopalosiphum padi infested wheat plant assessed as mortality at 1000 mg/l applied to upper plant for 1 min followed by basipetal transportation for 24 hr measured 48 hr after removal of upper plant parts relative to control; assay type: functional
Rhopalosiphum padi [17] = assay: Insecticidal activity against adult Rhopalosiphum padi infested wheat plant assessed as bout duration of xylem ingestion at 0.4 mg/l applied to the roots for 6 hr by electrical penetration graphical analysis (reference value: 20.4 +/- 4.5 min); assay type: functional
Rhopalosiphum padi [18] = assay: Insecticidal activity against adult Rhopalosiphum padi infested wheat plant assessed as frequency of phloem ingestion at 0.4 mg/l applied to the roots for 6 hr by electrical penetration graphical analysis (reference value: 2.85 +/- 0.18 Hz); assay type: functional
Rhopalosiphum padi [19] = assay: Insecticidal activity against adult Rhopalosiphum padi infested wheat plant assessed as total time of salivation into sieve elements at 2 mg/l applied to the roots for 6 hr by electrical penetration graphical analysis (reference value: 35.4 +/- 6.8 secs); assay type: functional
Rhopalosiphum padi [20] = assay: Toxicity against Rhopalosiphum padi infested wheat plant assessed as mortality at 1000 mg/l applied to upper plant for 1 min followed by basipetal transportation for 48 hr measured 24 hr after removal of upper plant parts relative to control; assay type: functional
Rhopalosiphum padi [21] = assay: Insecticidal activity against adult Rhopalosiphum padi infested wheat plant assessed as total time of salivation into sieve elements at 0.4 mg/l applied to the roots for 6 hr by electrical penetration graphical analysis (reference value: 35.4 +/- 6.8 secs); assay type: functional
Rhopalosiphum padi [22] = assay: Toxicity against first-instar nymph of Rhopalosiphum padi assessed as time until reproductive maturity at 0.4 mg/l applied to roots (reference value: 6.6 +/- 0.52 days); assay type: functional
Rhopalosiphum padi [23] = assay: Insecticidal activity against adult Rhopalosiphum padi infested wheat plant assessed as time taken for first phloem activity occurrence at 0.4 mg/l applied to the roots for 6 hr by electrical penetration graphical analysis (reference value: 141.9 +/- 18.1 min); assay type: functional
Rhopalosiphum padi [24] = assay: Toxicity against Rhopalosiphum padi infested wheat plant assessed as mortality at 1000 mg/l applied to upper plant for 1 min followed by basipetal transportation for 48 hr measured 48 hr after removal of upper plant parts relative to control; assay type: functional
Rhopalosiphum padi [25] = assay: Toxicity against Rhopalosiphum padi infested wheat plant applied to the roots measured after 24 hr; assay type: functional
Rhopalosiphum padi [26] = assay: Insecticidal activity against adult Rhopalosiphum padi infested wheat plant assessed as reduction in occurrences of salivation into sieve elements at 2 mg/l applied to the roots for 6 hr by electrical penetration graphical analysis relative to control; assay type: functional, organism-based
Rhopalosiphum padi [27] = assay: Insecticidal activity against adult Rhopalosiphum padi infested wheat plant assessed as reduction in occurrences of phloem ingestion at 2 mg/l applied to the roots for 6 hr by electrical penetration graphical analysis relative to control; assay type: functional, organism-based
Rhopalosiphum padi [28] = assay: Contact toxicity against Rhopalosiphum padi infested wheat plant applied as spray measured after 24 hr; assay type: functional
Rhopalosiphum padi [29] = assay: Insecticidal activity against adult Rhopalosiphum padi infested wheat plant assessed as bout duration of salivation into sieve elements at 0.4 mg/l applied to the roots for 6 hr by electrical penetration graphical analysis (reference value: 32.4 +/- 3 secs); assay type: functional
Rhopalosiphum padi [30] = assay: Insecticidal activity against adult Rhopalosiphum padi infested wheat plant assessed as time taken for first xylem ingestion occurrence at 0.4 mg/l applied to the roots for 6 hr by electrical penetration graphical analysis (reference value: 145.5 +/- 27.1 min); assay type: functional
Rhopalosiphum padi [31] = assay: Insecticidal activity against adult Rhopalosiphum padi infested wheat plant assessed as bout duration of phloem ingestion at 2 mg/l applied to the roots for 6 hr by electrical penetration graphical analysis (reference value: 277.2 +/- 30.8 min); assay type: functional
Rhopalosiphum padi [32] = assay: Insecticidal activity against adult Rhopalosiphum padi infested wheat plant assessed as bout duration of phloem ingestion at 0.4 mg/l applied to the roots for 6 hr by electrical penetration graphical analysis (reference value: 277.2 +/- 30.8 min); assay type: functional

`CC1CC(O)N2CCN(Cc3ccc(Cl)nc3)C2=C1[N+](=O)[O-]` (centres undefined) was tested, and the Activity (Rhopalosiphum padi [1]) was “inactive”, the Activity (Rhopalosiphum padi [2]) was “Active” and the Time (Rhopalosiphum padi [3]) was 0 min. For the same compound, the Activity (Rhopalosiphum padi [4]) was 14.3%, the LC15 (Rhopalosiphum padi [5]) was 0.09 µg/mL (≈ 0.277 µM) and the LC50 (Rhopalosiphum padi [5]; Rhopalosiphum padi, 48 h) was 2.4 µg/mL (≈ 7.39 µM). For the same compound, the Activity (Rhopalosiphum padi [6]) was 7.03 Hz, the Activity (Rhopalosiphum padi [7]) was “inactive” and the Time (Rhopalosiphum padi [8]) was 0 min. The Time (Rhopalosiphum padi [9]) was 218.8 min, the Activity (Rhopalosiphum padi [10]) was “Active” and the Time (Rhopalosiphum padi [11]) was 0 s. The Time (Rhopalosiphum padi [12]) was 0 min, the Activity (Rhopalosiphum padi [13]) was “Active” and the Activity (Rhopalosiphum padi [14]) was “inactive”. For the same compound, the Time (Rhopalosiphum padi [15]) was 10.4 min, the Activity (Rhopalosiphum padi [16]) was 33.2% and the Time (Rhopalosiphum padi [17]) was 9.7 min. For the same compound, the Activity (Rhopalosiphum padi [18]) was 1.96 Hz, the Time (Rhopalosiphum padi [19]) was 0 s and the Activity (Rhopalosiphum padi [20]) was 18.4%. It also gave a Time (Rhopalosiphum padi [21]) of 64.3 s, a Time (Rhopalosiphum padi [22]) of 8.39 days and a Time (Rhopalosiphum padi [23]) of 139.8 min. For the same compound, the Activity (Rhopalosiphum padi [24]) was 59.9%, the LC15 (Rhopalosiphum padi [25]) was 0.4 µg/mL (≈ 1.23 µM) and the LC50 (Rhopalosiphum padi [25]; Rhopalosiphum padi, 24 h) was 23.4 µg/mL (≈ 72.1 µM). The Activity (Rhopalosiphum padi [26]) was “Active”, the Activity (Rhopalosiphum padi [27]) was “Active” and the LC50 (Rhopalosiphum padi [28]) was 2.45 µg/mL (≈ 7.54 µM). It also gave a Time (Rhopalosiphum padi [29]) of 59.5 s, a Time (Rhopalosiphum padi [30]) of 141.5 min and a Time (Rhopalosiphum padi [31]) of 0 min. The Time (Rhopalosiphum padi [32]) was 206.8 min.
`O=[N+]([O-])/N=C1\NCCN1Cc1ccc(Cl)nc1` [IMIDACLOPRID] showed an Activity (Rhopalosiphum padi [4]) of 3.1%, an Activity (Rhopalosiphum padi [16]) of 6.7% and an Activity (Rhopalosiphum padi [20]) of 3.5%. For the same compound, the Activity (Rhopalosiphum padi [24]) was 7.1% and the LC50 (Rhopalosiphum padi [28]) was 0.9 µg/mL (≈ 3.52 µM).
